# From patent publication US9475773B2, “NK3 receptor antagonist compound (NK3RA) for use in a method for the treatment of polycystic ovary syndrome (PCOS)” (ASTRAZENECA AB, priority 2013, dated 2016)
# Read-outs that look alike come from different tables or passages of the source.
# Tests used:
# dogs = test: Dog electrocardiographic (ECG) telemetry study; assay type: in vivo
# rats = test: Cardiovascular effects in rats; assay type: in vivo, rat; conditions: 46 mg/kg orally (100 μmol/kg), highest dose tested
# [1] = Pharmacokinetics and metabolism in dogs; assay type: in vivo; conditions: dog
# Procedure: At low doses, the estimated Clp of The NK3RA was moderate in rat (8.3 ml/min/kg) and low in the dog (1.2 ml/min/kg). Bioavailability (F) was ˜100% in both species indicating extensive absorption in these species. The volume of distribution (Vz) was moderate (1.6 L·kg in rat and 0.81 L/kg in dog) and consistent with the physico-chemical properties of the compound. […] The NK3RA exposure decreased after multiple dosing in rats, indicating either changes in absorption or induction of The NK3RA metabolism, or both, after multiple dosing. […] T1/2 values ranged from 5.6 hours to 14.3 hours at the end of dosing for dogs dosed at 1000 mg/kg/day (2180 μmol/kg/day). There were no consistent sex differences observed in the exposure to NK3RA in these 2 species.
# Following oral administration of The NK3RA in the rat, a pharmacologically active ketone metabolite appeared rapidly in plasma but slowly reached maximum concentration levels in all animals. […] T1/2 values ranged from 8.51 hours to 13.8 hours on Day 27 and Day 28 for dogs dosed with 1000 mg/kg/day (2180 μmol/kg/day) of the NK3RA. There were no consistent sex differences observed in the exposure to the metabolite in these 2 species.
structure (smiles),measurement,setting,value
"CC[C@H](NC(=O)c1c(NS(C)(=O)=O)c(-c2ccccc2)nc2ccccc12)c1ccccc1 [NK3RA, 3-(methanesulfonamido)-2-phenyl-N-[(1S)-1-phenylpropyl]quinoline-4-carboxamide]",effect on blood pressure,dogs,no effect
same,other ECG parameters including QTc interval duration,dogs,"No other ECG parameter, including QTc interval duration, was affected"
same,reduction in heart rate,"dogs; highest dose tested 2000 mg/kg orally, transient, dose-related",up to 29%
same,cardiovascular effects,rats,no cardiovascular effects
same,accumulation after 28-day repeat dosing regimen,[1],no accumulation or reduction
same,rate of absorption,[1]; oral administration,more rapidly absorbed
same,half-life,"[1]; plasma, oral, dogs dosed at 1000 mg/kg/day (2180 μmol/kg/day), read-out: T1/2 at the end of dosing",5.6 to 14.3 h
same,bioavailability,"[1]; plasma, oral, read-out: Bioavailability (F)",~100%
same,half-life,"[1]; plasma, read-out: elimination half-life (T½) (converted)",9.5 h
same,Vd,"[1]; plasma, read-out: volume of distribution (Vz)",0.81 L/kg
same,clearance,"[1]; plasma, low doses, estimated, read-out: Clp",1.2 mL/min/kg
